Test results: patent US20240158412A1 (Faxian Therapeutics, LLC, priority 2021, published 2024)

Target: USP7 (Homo sapiens, UniProt Q93009)
Assay: biochemical
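Also: fluorescence intensity readout of USP7 enzymatic activity, reaction incubated 90 min at room temperature.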
Experimental: Example A. Biochemical Assay of USP7 Inhibitor Potency (IC50)
Fluorescence intensity assay of USP7 activity in the presence USP7 inhibitors. Recombinant USP7 protein (catalogue number E-519) and the fluorescence substrate ubiquitin-rhodamine 110 (Rh110) (catalogue number U-555) were purchased from Boston Biochem (840 Memorial Drive, Cambridge, MA 02139). The reaction was carried out in buffer 20 mM HEPES, pH 7.3, 150 mM NaCl, 1 mM TCEP, 125 μg/mL BSA at room temperature in a black 384-well Microplate (Greiner, catalog number 781076).
Test compounds were dissolved in DMSO to make 50 mM stock solution. […] In wells of a black 384-well Microplate, 15 μl of 100 pM of USP7 enzyme was added to each well with pre-diluted compounds and incubated at room temperature for 30 minutes, followed by addition of 10 μl of ubiquitin-rhodamine 110 (Rh110) substrate to reach 160 nM final concentration. The reaction mixtures were incubated for additional 90 minutes at room temperature. The fluorescence signal of the digested substrate was measured on an EnVision microplate reader (PerkinElmer,), using excitation at 485 nm and emission at 535 nm. The IC50 values were calculated using XLfit software.

Chain of USP7 (Q93009 whole entry): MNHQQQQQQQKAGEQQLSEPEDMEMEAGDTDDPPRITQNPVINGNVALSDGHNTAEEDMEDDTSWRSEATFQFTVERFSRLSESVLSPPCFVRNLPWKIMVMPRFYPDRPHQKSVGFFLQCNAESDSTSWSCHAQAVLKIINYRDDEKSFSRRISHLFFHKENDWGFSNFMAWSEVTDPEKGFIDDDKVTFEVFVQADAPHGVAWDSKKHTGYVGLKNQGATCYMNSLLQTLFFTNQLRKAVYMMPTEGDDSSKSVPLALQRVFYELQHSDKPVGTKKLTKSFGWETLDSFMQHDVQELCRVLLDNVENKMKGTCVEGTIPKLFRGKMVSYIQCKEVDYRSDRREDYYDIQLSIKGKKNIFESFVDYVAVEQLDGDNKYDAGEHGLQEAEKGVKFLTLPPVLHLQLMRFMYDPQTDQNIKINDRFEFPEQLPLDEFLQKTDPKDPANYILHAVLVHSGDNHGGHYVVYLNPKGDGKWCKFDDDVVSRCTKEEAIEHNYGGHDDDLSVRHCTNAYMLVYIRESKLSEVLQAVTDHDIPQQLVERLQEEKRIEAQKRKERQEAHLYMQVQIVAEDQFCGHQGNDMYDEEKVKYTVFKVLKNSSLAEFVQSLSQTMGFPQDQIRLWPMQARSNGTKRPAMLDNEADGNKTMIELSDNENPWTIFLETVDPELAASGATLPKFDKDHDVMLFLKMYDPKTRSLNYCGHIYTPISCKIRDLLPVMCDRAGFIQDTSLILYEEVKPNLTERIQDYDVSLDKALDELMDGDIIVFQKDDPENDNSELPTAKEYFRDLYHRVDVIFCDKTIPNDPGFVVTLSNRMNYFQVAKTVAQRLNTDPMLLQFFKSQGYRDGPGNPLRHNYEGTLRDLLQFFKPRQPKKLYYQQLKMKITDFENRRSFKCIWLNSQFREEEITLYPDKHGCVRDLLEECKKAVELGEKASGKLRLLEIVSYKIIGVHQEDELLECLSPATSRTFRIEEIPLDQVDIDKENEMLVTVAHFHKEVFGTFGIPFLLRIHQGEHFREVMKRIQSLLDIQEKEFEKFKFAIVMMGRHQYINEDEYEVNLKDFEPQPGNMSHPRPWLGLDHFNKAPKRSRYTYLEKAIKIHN

Structure (SMILES) | IC50 [nM]
O=C(c1cc2nccc(-c3cc(Cl)cc4c3N(C3CNC3)CCC4)c2s1)N1CCC1 [Example 38, Azetidin-1-yl-[7-[1-(azetidin-3-yl)-6-chloro-3,4-dihydro-2H-quinolin-8-yl]thieno[3,2-b]pyridin-2-yl]methanone] | > 1000
O=c1ccn(CC(F)F)c(=O)n1Cc1cc2nccc(-c3cc(C(F)(F)F)cc4c3N([C@H]3CCNC3)CCC4)c2s1 [Example 81, (S)-1-(2,2-difluoroethyl)-3-((7-(1-(pyrrolidin-3-yl)-6-(trifluoromethyl)-1,2,3,4-tetrahydroquinolin-8-yl)thieno[3,2-b]pyridin-2-yl)methyl)pyrimidine-2,4(1H,3H)-dione] | < 10
CN1C[C@@H](N2CCCc3cc(C#N)cc(-c4ccnc5cc(Cn6c(=O)ccn(C)c6=O)sc45)c32)CC1(C)C [Example 123, (S)-8-(2-((3-methyl-2,6-dioxo-2,3-dihydropyrimidin-1(6H)-yl)methyl)thieno[3,2-b]pyridin-7-yl)-1-(1,5,5-trimethylpyrrolidin-3-yl)-1,2,3,4-tetrahydroquinoline-6-carbonitrile] | < 10
CO[C@@H]1CNC[C@H]1N1CCCc2cc(Cl)cc(-c3ccnc4cc(CN5C(=O)CCC5=O)sc34)c21 (single isomer, unassigned) [Example 97b] | < 10
CC1(C)OC(=O)N(Cc2cc3nccc(-c4cc(Cl)cc5c4N([C@@H]4CNC6(CCC6)C4)CCC5)c3s2)C1=O [Example 152, (S)-3-((7-(6-chloro-1-(5-azaspiro[3.4]octan-7-yl)-1,2,3,4-tetrahydroquinolin-8-yl)thieno[3,2-b]pyridin-2-yl)methyl)-5,5-dimethyloxazolidine-2,4-dione] | 10 to 100
O=c1cc(CC(F)F)cnn1Cc1cc2nccc(-c3cc(Cl)cc4c3N([C@H]3CCNC3)CCC4)c2s1 [Example 105, (S)-2-((7-(6-chloro-1-(pyrrolidin-3-yl)-1,2,3,4-tetrahydroquinolin-8-yl)thieno[3,2-b]pyridin-2-yl)methyl)-5-(2,2-difluoroethyl)pyridazin-3(2H)-one] | < 10
O=C1OC[C@@H](C(F)(F)F)N1Cc1cc2nccc(-c3cc(Cl)cc4c3N([C@@H]3CNC5(CCC5)C3)CCC4)c2s1 [Example 157, (S)-3-((7-(6-chloro-1-((S)-5-azaspiro[3.4]octan-7-yl)-1,2,3,4-tetrahydroquinolin-8-yl)thieno[3,2-b]pyridin-2-yl)methyl)-4-(trifluoromethyl)oxazolidin-2-one] | 10 to 100
O=C1CCC(=O)N1Cc1cc2nccc(-c3cc(Cl)cc4c3N([C@@H]3CNC[C@H]3F)CCC4)c2s1 (single isomer, unassigned) [Example 96b] | 10 to 100
O=c1ccn(CC2CC2)c(=O)n1Cc1cc2nccc(-c3cc(Cl)cc4c3N([C@H]3CCNC3)CCC4)c2s1 [Example 62, (S)-3-((7-(6-chloro-1-(pyrrolidin-3-yl)-1,2,3,4-tetrahydroquinolin-8-yl)thieno[3,2-b]pyridin-2-yl)methyl)-1-(cyclopropylmethyl)pyrimidine-2,4(1H,3H)-dione] | < 10
O=C1CCC(=O)N1Cc1cc2nccc(-c3cc(C(F)(F)F)cc4c3N([C@@H]3CNC5(CCC5)C3)CCC4)c2s1 [Example 163, (S)-1-((7-(1-(5-azaspiro[3.4]octan-7-yl)-6-(trifluoromethyl)-1,2,3,4-tetrahydroquinolin-8-yl)thieno[3,2-b]pyridin-2-yl)methyl)pyrrolidine-2,5-dione] | < 10
O=c1ccn(C2CC2)c(=O)n1Cc1cc2nccc(-c3cc(Cl)cc4c3N([C@@H]3CNC5(CCC5)C3)CCC4)c2s1 [Example 148, (S)-3-((7-(6-chloro-1-(5-azaspiro[3.4]octan-7-yl)-1,2,3,4-tetrahydroquinolin-8-yl)thieno[3,2-b]pyridin-2-yl)methyl)-1-cyclopropylpyrimidine-2,4(1H,3H)-dione] | < 10
O=C1CCC(=O)N1Cc1cc2nccc(-c3cc(Cl)cc4c3N([C@@H]3CCCNC3)CCC4)c2s1 (single isomer, unassigned) [Example 51b] | 10 to 100
O=C1CCC(=O)N1Cc1cc2nccc(-c3cc(Cl)cc4c3N(C3CCNCC3)CCC4)c2s1 [Example 45, 1-((7-(6-chloro-1-(piperidin-4-yl)-1,2,3,4-tetrahydroquinolin-8-yl)thieno[3,2-b]pyridin-2-yl)methyl)pyrrolidine-2,5-dione] | 10 to 100
O=c1ccn(CC2(C(F)F)CC2)c(=O)n1Cc1cc2nccc(-c3cc(Cl)cc4c3N([C@H]3CCNC3)CCC4)c2s1 [Example 69, (S)-3-((7-(6-chloro-1-(pyrrolidin-3-yl)-1,2,3,4-tetrahydroquinolin-8-yl)thieno[3,2-b]pyridin-2-yl)methyl)-1-((1-(difluoromethyl)cyclopropyl)methyl)pyrimidine-2,4(1H,3H)-dione] | < 10
O=c1cc(Oc2ccc(F)cc2)cnn1Cc1cc2nccc(-c3cc(Cl)cc4c3N(C3CNC3)CCC4)c2s1 [Example 36, 2-((7-(1-(azetidin-3-yl)-6-chloro-1,2,3,4-tetrahydroquinolin-8-yl)thieno[3,2-b]pyridin-2-yl)methyl)-5-(4-fluorophenoxy)pyridazin-3(2H)-one] | 10 to 100
C[C@H](c1cc2nccc(-c3cc(C#N)cc4c3N([C@@H]3CCNC3)CCC4)c2s1)N1C(=O)CCC1=O (single isomer, unassigned) [Example 112c] | 101 to 1000
CC1(C)C[C@H](N2CCOc3cc(C#N)cc(-c4ccnc5cc(Cn6ncc(C(C)(C)C)cc6=O)sc45)c32)CN1 [Example 136, (S)-5-(2-((4-(tert-butyl)-6-oxopyridazin-1(6H)-yl)methyl)thieno[3,2-b]pyridin-7-yl)-4-(5,5-dimethylpyrrolidin-3-yl)-3,4-dihydro-2H-benzo[b][1,4]oxazine-7-carbonitrile] | < 10
C[C@@H](c1cc2nccc(-c3cc(C#N)cc4c3N([C@H]3CCNC3)CCC4)c2s1)N1C(=O)CCC1=O (single isomer, unassigned) [Example 112b] | 101 to 1000
O=C1CCC(=O)N1Cc1cc2nccc(-c3cc(Cl)cc4c3N(C3CN(CCO)C3)CCC4)c2s1 [Example 10, 1-[[7-[6-chloro-1-[1-(2-hydroxyethyl)azetidin-3-yl]-3,4-dihydro-2H-quinolin-8-yl]thieno[3,2-b]pyridin-2-yl]methyl]pyrrolidine-2,5-dione] | 10 to 100

More lines, now with the values ahead:

IC50 [nM] | Structure (SMILES)
10 to 100 | C[C@]1(CO)C[C@H](N2CCOc3cc(C#N)cc(-c4cc[n+]([O-])c5cc(Cn6ncc(C7(C(F)(F)F)CC7)cc6=O)sc45)c32)CN1 [Example 223, 7-(7-cyano-4-((3S,5R)-5-(hydroxymethyl)-5-methylpyrrolidin-3-yl)-3,4-dihydro-2H-benzo[b][1,4]oxazin-5-yl)-2-((6-oxo-4-(1-(trifluoromethyl)cyclopropyl)pyridazin-1(6H)-yl)methyl)thieno[3,2-b]pyridine 4-oxide]
< 10 | C[C@@]1(C(=O)O)C[C@H](N2CCCc3cc(Cl)cc(-c4ccnc5cc(CN6C(=O)CCC6=O)sc45)c32)CN1 [Example 205, (2S,4S)-4-(6-chloro-8-(2-((2,5-dioxopyrrolidin-1-yl)methyl)thieno[3,2-b]pyridin-7-yl)-3,4-dihydroquinolin-1(2H)-yl)-2-methylpyrrolidine-2-carboxylic acid]
< 10 | COC(=O)[C@@]1(C)C[C@H](N2CCCc3cc(Cl)cc(-c4ccnc5cc(CN6C(=O)CCC6=O)sc45)c32)CN1 (single isomer, unassigned) [Example 203]
101 to 1000 | O=C1CCC(=O)N1Cc1cc2nccc(-c3cc(Cl)cc4c3N([C@H]3CO[C@H](CO)C3)CCO4)c2s1 (single isomer, unassigned) [Example 227b]
< 10 | C[C@]1(CO)C[C@H](N2CCCc3cc(C#N)cc(-c4ccnc5cc(CN6C(=O)CCC6=O)sc45)c32)CN1 [Example 209, 8-(2-((2,5-dioxopyrrolidin-1-yl)methyl)thieno[3,2-b]pyridin-7-yl)-1-((3S,5R)-5-(hydroxymethyl)-5-methylpyrrolidin-3-yl)-1,2,3,4-tetrahydroquinoline-6-carbonitrile]
< 10 | CC(C)(C)c1cnn(Cc2cc3nccc(-c4cc(C#N)cc5c4N([C@@H]4CN[C@@](C)(CO)C4)CCO5)c3s2)c(=O)c1 [Example 221, 5-[2-[(4-tert-butyl-6-oxo-pyridazin-1-yl)methyl]thieno[3,2-b]pyridin-7-yl]-4-[(3S,5R)-5-(hydroxymethyl)-5-methyl-pyrrolidin-3-yl]-2,3-dihydro-1,4-benzoxazine-7-carbonitrile]
< 10 | O=C1CCC(=O)N1Cc1cc2nccc(-c3cc(Cl)cc4c3N(C3CNC5(CC(F)C5)C3)CCC4)c2s1 (centres unmarked) [Example 211, 1-((7-(6-chloro-1-(2-fluoro-5-azaspiro[3.4]octan-7-yl)-1,2,3,4-tetrahydroquinolin-8-yl)thieno[3,2-b]pyridin-2-yl)methyl)pyrrolidine-2,5-dione]
< 10 | CCn1c(N(C)C)cc(=O)n(Cc2cc3nccc(-c4cc(C#N)cc5c4N([C@H]4CN[C@](C)(CO)C4)CCO5)c3s2)c1=O (stereo in doubt) [Example 219, 5-(2-((4-(dimethylamino)-3-ethyl-2,6-dioxo-2,3-dihydropyrimidin-1(6H)-yl)methyl)thieno[3,2-b]pyridin-7-yl)-4-((3R,5S)-5-(hydroxymethyl)-5-methylpyrrolidin-3-yl)-3,4-dihydro-2H-benzo[b][1,4]oxazine-7-carbonitrile]
< 10 | C[C@]1(CO)C[C@H](N2CCOc3cc(C#N)cc(-c4ccnc5cc(Cn6ncc(C7(C(F)(F)F)CC7)cc6=O)sc45)c32)CN1 [Example 222, 4-[(3S,5R)-5-(hydroxymethyl)-5-methyl-pyrrolidin-3-yl]-5-[2-[[6-oxo-4-[1-(trifluoromethyl)cyclopropyl]pyridazin-1-yl]methyl]thieno[3,2-b]pyridin-7-yl]-2,3-dihydro-1,4-benzoxazine-7-carbonitrile]
101 to 1000 | O=C1CCC(=O)N1Cc1cc2nccc(-c3cc(Cl)cc4c3N([C@H]3CNC5(CCC5)C3)C[C@@H]3C[C@H]43)c2s1 [Example 165b, 1-((7-((1aR,7bS)-6-chloro-3-((R)-5-azaspiro[3.4]octan-7-yl)-1a,2,3,7b-tetrahydro-1H-cyclopropa[c]quinolin-4-yl)thieno[3,2-b]pyridin-2-yl)methyl)pyrrolidine-2,5-dione]
